{"source": "patent US10000500B2", "about": "(PROMEGA CORPORATION, priority 2016, dated 2018)", "molecules": {"B1": {"name": "Renilla luciferase (Renilla reniformis) (protein)", "chain": "MTSKVYDPEQRKRMITGPQWWARCKQMNVLDSFINYYDSEKHAENAVIFLHGNAASSYLWRHVVPHIEPVARCIIPDLIGMGKSGKSGNGSYRLLDHYKYLTAWFELLNLPKKIIFVGHDWGACLAFHYSYEHQDKIKAIVHAESVVDVIESWDEWPDIEEDIALIKSEEGEKMVLENNFFVETMLPSKIMRKLEPEEFAAYLEPFKEKGEVRRPTLSWPREIPLVKGGKPDVVQIVRNYNAYLRASDDLPKMFIESDPGFFSNAIVEGAKKFPNTEFVKVKGLHFSQEDAPDEMGKYIKSFVERVLKNEQ"}}, "format_in_all_cases": "biochemical", "key": {"NANOLUC® Luciferase [1]": {"biological_target": "T1, NANOLUC® Luciferase (Oplophorus gracilirostris, UniProt Q9GV45, A31E/A60N/A81I/F95D/I117V/K70R/L54V/L99Q/M102K/N193R/P142E/Q151K/Q38R/Q45L/V71I/Y165I)", "T1 sequence (Q9GV45 28-196 with tags or gaps with the stated changes limits assumed)": "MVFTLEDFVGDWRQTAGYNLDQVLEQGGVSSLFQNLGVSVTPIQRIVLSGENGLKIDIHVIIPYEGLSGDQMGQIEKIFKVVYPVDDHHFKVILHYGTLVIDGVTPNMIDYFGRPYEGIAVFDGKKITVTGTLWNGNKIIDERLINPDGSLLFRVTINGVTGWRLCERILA", "assay": "Enzyme titration with NanoLuc luciferase (Example 9B)", "settings": "substrate 100 uM; FIG. 2B", "method": "(§1) Renilla luciferase and NanoLuc Lucifersase were diluted to a concentration of 4 ug/ml (4 ng/uL) in OptiMEM+0.1% FBS. 10× serial dilutions of the luciferases were then prepared in OptiMEM+0.1% FBS. Each substrate was diluted to 100 uM into Renilla Glo Luciferase assay buffer (Promega Corporation). The 10× enzyme serial dilutions were then combined with the substrate dilutions, 50 ul mixed with 50 ul compound, and incubated for 1 minute at room temperature. Light output for each compound was measured on a GLOMAX®-Multi+ luminometer."}, "Renilla luciferase": {"biological_target": "T2, Renilla luciferase (Renilla reniformis, UniProt P27652)", "T2 sequence (P27652 1-311)": "B1 chain", "assay": "Enzyme titration with Renilla luciferase (Example 9B)", "settings": "FIG. 2B", "method": "as §1"}, "NANOLUC® Luciferase [2]": {"biological_target": "T1, NANOLUC® Luciferase", "assay": "Spectral measurements in various buffers with NANOLUC luciferase (Example 10)", "settings": "for High / Low / Peak / Width: emission spectrum", "method": "Each compound to be screened was diluted to a concentration of 100 uM (50 uM final concentration) in Renilla Glo Luciferase Assay buffer (Promega Corporation), NANO-GLO Luciferase Assay Buffer (Promega Corporation), or 20 uM (10 uM final) in OptiMEM+0.1% FBS. NANOLUC® luciferase and Renilla luciferase were serially diluted to 4, 40, and 400 ng/ml in OptiMEM+0.1% FBS. 50 ul of each compound dilution was mixed with 50 ul enzyme dilution and incubated for 1 minute at room temperature. Autoluminescence spectra of AS-353 was measured by adding 20 uM of substrate to OptiMEM+20% FBS and then 50 ul of this dilution was combined with 50 ul of OptiMEM+0.1% FBS. Spectral measurements were measured using a Tecan M-1000 luminometer. ([…])."}, "[3]": {"substrate": "O=c1c(Cc2ccco2)nc2c(Cc3ccccc3)[nH]c(-c3ccccc3)cn1-2", "assay": "Km and Vmax substrate titration with Renilla luciferase (Example 8)", "settings": "other: Renilla luciferase 4 ng/ml; Renilla Glo buffer; Michaelis-Menten fit", "method": "Each compound to be screened was diluted to a concentration of 100 uM in Renilla Glo Luciferase Assay buffer (Promega Corporation) and then further diluted to 2×serial dilution in Renilla Glo Luciferase Assay Buffer. NANOLUC® luciferase and Renilla luciferase were diluted to a concentration of 4 ng/ml in OptiMEM+0.1% FBS. 50 ul of each compound dilution was then mixed with 50 ul of each enzyme dilution and incubated for 1 minute at room temperature. Light output for each compound was measured on a GLOMAX®-Multi+ luminometer. Km and Vmax were calculated for each enzyme/substrate combination using a GraphPad Prism Michaelis-Menten non-linear fit (FIGS. 1A-ID)."}}, "data": [{"molecule": "N#Cc1ccc(-c2[nH]c(-c3ccc(O)cc3)cn3c(=O)c(Cc4ccco4)nc2-3)s1", "note": "[AS-353, 5-(2-(furan-2-ylmethyl)-6-(4-hydroxyphenyl)-3-oxo-3,7-dihydroimidazo[1,2-a]pyrazin-8-yl)thiophene-2-carbonitrile]", "values": [{"measurement": "lower RLU values with NanoLuc compared to AS-360", "setting": "NANOLUC® Luciferase [1]", "result": "~100", "unit": "×"}, {"measurement": "enzyme dependent luminescence with Renilla Luciferase", "setting": "Renilla luciferase", "result": "only at the highest enzyme concentration"}, {"measurement": "shift of the NanoLuc luciferase spectral properties", "setting": "NANOLUC® Luciferase [2]; FIGS. 3A-3C and 4A-4D", "result": "shifted the NanoLuc® luciferase spectral properties to red"}, {"measurement": "NanoGlo (spectral peak, Table 4)", "setting": "NANOLUC® Luciferase [2]; NanoLuc, NanoGlo buffer", "result": 592}, {"measurement": "OptiMEM (spectral peak, Table 4)", "setting": "NANOLUC® Luciferase [2]; NanoLuc, OptiMEM", "result": 583}, {"measurement": "High", "setting": "NANOLUC® Luciferase [2]; NanoLuc, NanoGlo Buffer", "result": 652}, {"measurement": "Low", "setting": "NANOLUC® Luciferase [2]; NanoLuc, NanoGlo Buffer", "result": 550}, {"measurement": "Peak", "setting": "NANOLUC® Luciferase [2]; NanoLuc, NanoGlo Buffer", "result": 592}, {"measurement": "Width", "setting": "NANOLUC® Luciferase [2]; NanoLuc, NanoGlo Buffer", "result": 102}, {"measurement": "High", "setting": "NANOLUC® Luciferase [2]; NanoLuc, OptiMEM + 0.1% FBS", "result": 637}, {"measurement": "Low", "setting": "NANOLUC® Luciferase [2]; NanoLuc, OptiMEM + 0.1% FBS", "result": 544}, {"measurement": "Peak", "setting": "NANOLUC® Luciferase [2]; NanoLuc, OptiMEM + 0.1% FBS", "result": 583}, {"measurement": "Width", "setting": "NANOLUC® Luciferase [2]; NanoLuc, OptiMEM + 0.1% FBS", "result": 93}]}, {"molecule": "B1", "values": [{"measurement": "Km", "setting": "[3]", "result": 10.6, "unit": "µM"}]}]}
